Results taken from ChEMBL document CHEMBL1135139, “Solid-phase synthesis of thrombin inhibitors” (Bioorg Med Chem Lett, 2002).

Target: Prothrombin (Homo sapiens, UniProt P00734)
Assay: In vitro Inhibitory concentration against Thrombin

IC50: 3.6 nM
SMILES: N=C(N)c1ccc(CNC(=O)[C@@H]2C=CCN2C(=O)[C@@H](CC2CCCCC2)NCC(=O)O)s1
